# System: Human liver cancer-derived cell line (HuH-7)
# Assay: miRNA released into serum-free culture medium from HuH-7 cells treated with carbon tetrachloride (real-time PCR)
# Assay type: cell-based
# Details: carbon tetrachloride 0-1000 μM, 7-day culture in serum-free maintenance medium, FIG. 2
# Method: Human liver cancer-derived cell line (HuH-7, purchased from ATCC) was seeded in a culture vessel of 12-well culture plate at a cell density of 20000 cells/cm^2, and cells were cultured for 7 days in a serum-free maintenance medium containing carbon tetrachloride, which was known to injure liver tissue and liver cells, at a relatively low concentration of 0-1000 μM used in World J Gastroenterol. 2008 Jun. 21; 14(23):3693-709. The maintenance medium used herein was the same as one used in Example 1.
# Each culture medium was collected after 7-day culturing, and cells were removed by filtration through a 0.22 μm filter to obtain samples.
# cDNA samples of Poly(A)miRNA samples were obtained in the same manner as in Example 1.
# Real-time PCR was carried out using Platinum SYBR Green (produced by Invitrogen) to measure hsa-miR-21, hsa-miR-122, hsa-miR-451 and hsa-miR-16 contained in the cDNA samples. The primers used were as follows.
smiles,measurement,value
ClC(Cl)(Cl)Cl [carbon tetrachloride],"amount of miRNA released from cells into culture medium (hsa-miR-21, hsa-miR-122, hsa-miR-451, hsa-miR-16)",increased
